Test results from ChEMBL document CHEMBL6087476, “Positive Charge-Concentrated Dimeric Lipopeptides with Enhanced Protease Resistance: A Potential Solution for Systemic Bacterial Infections” (J Med Chem, 2025).
≈ marks a conversion by molar mass, not a printed value. Calls of active or inactive are those of the source. The calls are words filed in the database; no cut-off is given here.

What was measured:
Escherichia coli [1] = assay: Antimicrobial activity against Escherichia coli K88 assessed as increase in absorbance incubated for 20 to 22 hrs; type: functional; details: time 20-22 hrs
Staphylococcus aureus [2] = assay: Antimicrobial activity against Staphylococcus aureus 25923 assessed as increase in absorbance incubated for 20 to 22 hrs; type: functional; details: time 20-22 hrs
Staphylococcus aureus [3] = assay: Antimicrobial activity against methicillin-resistant Staphylococcus aureus 43300 assessed as increase in absorbance incubated for 20 to 22 hrs; type: functional; details: time 20-22 hrs
RAW264.7 = assay: Cytotoxicity against mouse RAW264.7 cells assessed as cell death measured after 18 to 24 hrs by MTT assay; type: functional; details: time 18-24 hrs
HEK-293T = assay: Cytotoxicity against human HEK293T cells assessed as cell death measured after 18 to 24 hrs by MTT assay; type: functional; details: time 18-24 hrs
Staphylococcus aureus [4] = assay: Antimicrobial activity against Staphylococcus aureus 11011 assessed as increase in absorbance incubated for 20 to 22 hrs; type: functional; details: time 20-22 hrs
Escherichia coli [5] = assay: Antimicrobial activity against Escherichia coli ATCC 25922 assessed as increase in absorbance incubated for 20 to 22 hrs in presence of Fe3+ physiological salt; type: functional, organism-based; details: time 20-22 hrs
Escherichia coli [6] = assay: Antimicrobial activity against Escherichia coli ATCC 25922 assessed as increase in absorbance incubated for 20 to 22 hrs in presence of Mg2+ physiological salt; type: functional, organism-based; details: time 20-22 hrs
Escherichia coli [7] = assay: Antimicrobial activity against Escherichia coli ATCC 25922 assessed as increase in absorbance incubated for 20 to 22 hrs in presence of […] physiological salt; type: functional, organism-based; details: time 20-22 hrs
Escherichia coli [8] = assay: Antimicrobial activity against Escherichia coli ATCC 25922 assessed as increase in absorbance incubated for 4 hrs in presence of 50% serum; type: functional, organism-based
Escherichia coli [9] = assay: Antimicrobial activity against Escherichia coli ATCC 25922 assessed as increase in absorbance at 8 mg/ml incubated for 8 hrs in presence of trypsin; type: functional, organism-based
Escherichia coli [10] = assay: Antimicrobial activity against Escherichia coli ATCC 25922 assessed as increase in absorbance at 8 mg/ml incubated for 8 hrs in presence of pepsin; type: functional, organism-based
Trypsin [11] = target: T1, Trypsin (Homo sapiens, UniProt P07477+P07478+P35030); assay: Stability of compound assessed as trypsin (unknown origin)-mediated compound structural integrity change at 8 mg/ml incubated for 1 to 8 hrs by 16.5% tricine-SDS-PAGE analysis; type: ADME, protein assay; details: time 1-8 hrs
Trypsin [12] = target: T1, Trypsin; assay: Stability of compound assessed as trypsin (unknown origin)-mediated compound structural integrity change at 8 mg/ml incubated for 1 to 8 hrs by RP-HPLC analysis; type: ADME, protein assay; details: time 1-8 hrs
Escherichia coli [13] = assay: Antibiofilm activity against Escherichia coli ATCC 25922 biofilm assessed as inhibition of biofilm formation at 2 uM; type: functional, organism-based
Escherichia coli [14] = assay: Antimicrobial activity against Escherichia coli ATCC 25922 assessed as increase in absorbance at MIC concentration in presence of < 8 ug/ml Lipopolysaccharide incubated for 8 hrs; type: functional, organism-based; details: dose < 8.0 µg/ml
Escherichia coli [15] = assay: Antimicrobial activity against Escherichia coli ATCC 25922 assessed as increase in absorbance at MIC concentration in presence of […] ug/ml Lipopolysaccharide incubated for 8 hrs; type: functional, organism-based; details: dose 64.0 µg/ml
Cell membrane [16] = assay: Induction of depolarization of cytoplasmic membrane (CM) in Escherichia coli ATCC 25922 assessed as fluorescence changes at 1/2 to 3 times of MIC measured after 1000 to 3000 seconds by fluorescent probe DiSC3-5 assay; type: subcellular; details: time 1000-3000 sec
Cell membrane [17] = assay: Induction of cytoplasmic membrane (CM) permeabilization in Escherichia coli ATCC 25922 assessed as utilization of ONPG at 1/2 MIC; type: subcellular
Escherichia coli [18] = assay: Reduction in intracellular ATP level in Escherichia coli ATCC 25922 at 2 uM measured after 1 hr incubation by Enhanced ATP assay kit; type: functional; design: scale not given: the % may be the effect or the level left
Escherichia coli [19] = assay: Induction of membrane damage in Escherichia coli ATCC 25922 assessed as damaged membrane surface (irregular vesicles protrusions) at 8 uM measured after 1 hr incubation by SEM analysis; type: functional, organism-based
Escherichia coli [20] = assay: Induction of membrane damage in Escherichia coli ATCC 25922 assessed as damaged membrane surface by analysing leakage (hollow interiors) at 8 uM measured after 1 hr incubation by TEM analysis; type: functional, organism-based
Escherichia coli [21] = assay: Induction of membrane damage in Escherichia coli ATCC 25922 assessed as ruptured membrane by analysing red fluorescence at 8 uM measured after 1 hr incubation by PI - live and dead staining based fluorescence microscopy; type: functional, organism-based
Escherichia coli [22] = assay: Bactericidal activity against Escherichia coli ATCC 25922 assessed as reduction in bacterial viability at 4 uM measured within 2 hrs; type: functional, organism-based
Escherichia coli [23] = assay: Resistance fold, ratio of MIC for Escherichia coli ATCC 25922 measured after 30 day passage period to MIC for Escherichia coli ATCC 25922; type: functional
[24] = Toxicity in ICR mouse assessed as humpbacking at 20 mg/kg, ip measured within 1 hr; type: organism-based; details: in vivo
[25] = Toxicity in ICR mouse assessed as reduced mobility at 20 mg/kg, ip measured within 1 hr; type: organism-based; details: in vivo
[26] = Toxicity in ICR mouse assessed as slight manifestation of stooping at 20 mg/kg, ip measured after 1 hr; type: organism-based; details: in vivo
[27] = Toxicity in ICR mouse assessed as humpbacking at 20 mg/kg, ip measured after 1 hr; type: organism-based; details: in vivo
[28] = Toxicity in ICR mouse assessed as reduced mobility at 20 mg/kg, ip measured after 1 hr; type: organism-based; details: in vivo
[29] = Toxicity in ICR mouse assessed as body weight change at 5 to 20 mg/kg, ip measured after 3 days; type: organism-based; details: in vivo, 72 h, dose 5-20 mg/kg, time 3 day
[30] = Toxicity in ICR mouse assessed as liver weight change at 5 to 20 mg/kg, ip measured after 3 days; type: organism-based; details: in vivo, 72 h, dose 5-20 mg/kg, time 3 day
[31] = Toxicity in ICR mouse assessed as kidney weight change at 5 to 20 mg/kg, ip measured after 3 days; type: organism-based; details: in vivo, 72 h, dose 5-20 mg/kg, time 3 day
[32] = Toxicity in ICR mouse assessed as alanine aminotransferase (ALT) level in serum at 5 to 20 mg/kg, ip measured after 3 days; type: organism-based; details: in vivo, 72 h, dose 5-20 mg/kg, time 3 day
[33] = Toxicity in ICR mouse assessed as blood urea nitrogen (BUN) level in serum at 5 to 20 mg/kg, ip measured after 3 days; type: organism-based; details: in vivo, 72 h, dose 5-20 mg/kg, time 3 day
Escherichia coli [34] = assay: Antibacterial activity against Escherichia coli ATCC 25922 injected intraperitoneally in ICR mouse assessed as reduction bacterial load in liver at 10 mg/kg, ip measured after 12 hrs by H and E staining based assay; type: functional, organism-based
Mus musculus = assay: Anti-inflammatory activity against Escherichia coli ATCC 25922-induced peritonitis ICR mouse model assessed as decrease in TNF-alpha level in serum spleen at 10 mg/kg, ip measured after 12 hrs; type: functional, organism-based
Escherichia coli [35] = assay: Antibacterial activity against Escherichia coli ATCC 25922 injected intraperitoneally in ICR mouse assessed as reduction in symptoms by measuring atrophied red medulla in spleen at 10 mg/kg, ip measured after 12 hrs by H and E staining based assay; type: functional, organism-based
Escherichia coli [36] = assay: Antibacterial activity against Escherichia coli ATCC 25922 injected intraperitoneally in ICR mouse assessed as reduction in symptoms by measuring atrophy of renal glomeruli at 10 mg/kg, ip measured after 12 hrs by H and E staining based assay; type: functional, organism-based

Question: For `CCCCCCCCCC(=O)NCCCC[C@H](N)C(=O)NCC(=O)NCC(=O)NCC(=O)N[C@H](CCCNC(=N)N)C(=O)N[C@@H](CCCNC(=N)N)C(=O)N[C@@H](CCCNC(=N)N)C(=O)N1CCC[C@H]1C(=O)N[C@@H](CSSC[C@H](NC(=O)[C@@H]1CCCN1C(=O)[C@H](CCCNC(=N)N)NC(=O)[C@H](CCCNC(=N)N)NC(=O)[C@@H](CCCNC(=N)N)NC(=O)CNC(=O)CNC(=O)CNC(=O)[C@@H](N)CCCCNC(=O)CCCCCCCCC)C(=O)O)C(=O)O`, which MIC (Escherichia coli [1]) is on record?
Answer: The MIC was 2 µM (≈ 4.56 µg/mL).

Question: What about the MIC (Staphylococcus aureus [2]) of the same compound?
Answer: The MIC was 4 µM (≈ 9.12 µg/mL).

Question: What about the MIC (Staphylococcus aureus [3]) of the same compound?
Answer: Its MIC is 4 µM (≈ 9.12 µg/mL).

Question: What about the IC10 (RAW264.7) of the same compound?
Answer: The IC10 was 256 µM.

Question: And the IC10 (HEK-293T)?
Answer: The IC10 was 256 µM.

Question: And the MIC (Staphylococcus aureus [4])?
Answer: Its MIC is 8 µM (≈ 18.2 µg/mL).

Question: What about the Activity (Escherichia coli [5]) of the same compound?
Answer: The Activity was “Active; C-C10)C-C Demonstrated Superior Physiological Salt Tolerance In Comparison To (N-C10)C-C”.

Question: And the Activity (Escherichia coli [6])?
Answer: Its Activity is “Active; C-C10)C-C Demonstrated Superior Physiological Salt Tolerance In Comparison To (N-C10)C-C”.

Question: And the Activity (Escherichia coli [7])?
Answer: The Activity was “Active; C-C10)C-C Demonstrated Superior Physiological Salt Tolerance In Comparison To (N-C10)C-C”.

Question: What about the Activity (Escherichia coli [8]) of the same compound?
Answer: The Activity was “Active”.

Question: And the Activity (Escherichia coli [9])?
Answer: The Activity was “Active; Negligible Alteration In Mic Values Found”.

Question: What about the Activity (Escherichia coli [10]) of the same compound?
Answer: The Activity was “Active; Negligible Alteration In Mic Values Found”.

Question: What about the Stability (Trypsin [11]) of the same compound?
Answer: Its Stability is “Stable”.

Question: What about the Stability (Trypsin [12]) of the same compound?
Answer: The Stability was “Stable”.

Question: And the Activity (Escherichia coli [13])?
Answer: The Activity was “Active”.

Question: What about the Activity (Escherichia coli [14]) of the same compound?
Answer: The Activity was “Active”.

Question: What about the Activity (Escherichia coli [15]) of the same compound?
Answer: The Activity was “inactive”.

Question: And the Activity (Cell membrane [16])?
Answer: The Activity was “Dose-dependent-effect”.

Question: And the Activity (Cell membrane [17])?
Answer: Its Activity is “Active”.

Question: What about the Activity (Escherichia coli [18]) of the same compound?
Answer: The Activity was roughly 40%.

Question: And the Activity (Escherichia coli [19])?
Answer: The Activity was “Active”.

Question: What about the Activity (Escherichia coli [20]) of the same compound?
Answer: Its Activity is “Active”.

Question: What about the Activity (Escherichia coli [21]) of the same compound?
Answer: The Activity was “Active”.

Question: And the Activity (Escherichia coli [22])?
Answer: Its Activity is “inactive”.

Question: And the “fold change (FC)” value (Escherichia coli [23])?
Answer: The value was “<=2”.

Question: What about the Activity [24] of the same compound?
Answer: The Activity was “Toxic”.

Question: And the Activity [25]?
Answer: The Activity was “Toxic”.

Question: And the Activity [26]?
Answer: The Activity was “Non-toxic”.

Question: What about the Activity [27] of the same compound?
Answer: Its Activity is “Non-toxic”.

Question: What about the Activity [28] of the same compound?
Answer: The Activity was “Non-toxic”.

Question: And the Activity [29]?
Answer: Its Activity is “Non-toxic”.

Question: What about the Activity [30] of the same compound?
Answer: The Activity was “Non-toxic”.

Question: And the Activity [31]?
Answer: Its Activity is “Non-toxic”.

Question: And the Activity [32]?
Answer: Its Activity is “Non-toxic”.

Question: What about the Activity [33] of the same compound?
Answer: The Activity was “Non-toxic”.

Question: And the Activity (Escherichia coli [34])?
Answer: Its Activity is “Active”.

Question: And the Activity (Mus musculus)?
Answer: The Activity was “Active”.

Question: And the Activity (Escherichia coli [35])?
Answer: Its Activity is “Active”.

Question: And the Activity (Escherichia coli [36])?
Answer: Its Activity is “Active”.
